Measured values published in patent US9593149B2, “Amylin and calcitonin receptor agonist” (Novo Nordisk A/S, priority 2014, dated 2017).
Values after ≈ are worked out from the molar mass of the structure shown. Numbered stars: 1 amine (or outer) side, 2 acyl side, 3 side chain; on linkers, the order of the positions; unused ones are H or OH. Peptide text beside a SMILES is read from it. * marks the point of attachment. C18 diacid = O=C(O)CCCCCCCCCCCCCCCCC(=O)*; γGlu = O=C(O)[C@H](CCC(=O)[*:2])N[*:1]

Tests used:
[1] = Assay (IV) determination of solubility; format: physicochemical
Method: Assay (IV)—Determination of Solubility
The mimylin peptide was dissolved in water at ˜500 nmol/ml and mixed 1:1 with a series of buffers (100 mM glycylglycine pH 3.0, 100 mM glycylglycine pH 4.0, 100 mM glycylglycine pH 5.0, 100 mM bistrispropane pH 6.0, 100 mM bistrispropane pH 6.5, 100 mM bistrispropane pH 7.0, 100 mM bistrispropane pH 7.5, 100 mM bistrispropane pH 8.0).

[2] = molecular target: T1, human amylin 3(a) receptor (human calcitonin receptor + RAMP-3), BHK570 cells (Homo sapiens, UniProt O60896+P30988); test: Assay (II)b functional CRE-luciferase assay without albumin, human amylin receptor; format: cell-based; details: Tested without HSA; read-out: hAmylin-R funct. EC50
T1 construct: host or cells: BHK570
Outline: (§1)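 BHK570 cells stably expressing human calcitonin receptor with CRE-luciferase reporter, plus RAMP-3 for the amylin 3(a) line. Cells stimulated 3 hours at 37 °C in albumin-free assay medium (0.1% ovalbumin, 10 mM Hepes pH 7.4); cAMP-driven luciferase read by luminescence.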

[3] = molecular target: T2, human calcitonin receptor, BHK tk'ts 13 cells (Homo sapiens, UniProt P30988); test: Assay (VIIa) binding to the human calcitonin receptor (whole cell); details: read-out: hCT-R binding IC50
T2 construct: expressed in transfected cells; host or cells: BHK tk'ts 13
T2 sequence (P30988 25-474): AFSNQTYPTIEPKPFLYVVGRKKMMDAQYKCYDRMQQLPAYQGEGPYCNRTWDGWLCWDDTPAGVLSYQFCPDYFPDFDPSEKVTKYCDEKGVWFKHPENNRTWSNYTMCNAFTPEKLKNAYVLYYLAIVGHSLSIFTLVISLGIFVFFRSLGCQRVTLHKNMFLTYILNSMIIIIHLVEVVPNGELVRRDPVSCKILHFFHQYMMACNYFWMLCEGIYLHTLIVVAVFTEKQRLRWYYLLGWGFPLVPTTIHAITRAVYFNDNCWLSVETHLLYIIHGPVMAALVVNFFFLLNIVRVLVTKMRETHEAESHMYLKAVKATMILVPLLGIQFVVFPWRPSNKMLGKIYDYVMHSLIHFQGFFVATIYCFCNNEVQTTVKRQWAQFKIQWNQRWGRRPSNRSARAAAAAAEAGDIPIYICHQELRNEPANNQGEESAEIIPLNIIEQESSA
Method: Assay (VIIa)—Determination of Binding to the Human Calcitonin Receptor (Whole Cell Binding)
The binding assay was performed using a BHK tk'ts 13 cell line was stably transfected with the human calcitonin receptor, and a CRE-responsive luciferase reporter gene.
The day before the assay the cells were Seeded into Poly-D-Lysin coated 384W Opaque White, BD BioCoat plates (10000 cells/well) and Incubated overnight at 37° C., 5% CO2, 95% humidity. Then, the cells were washed in HBSS (4° C.), and incubated overnight at 4° C. in a binding buffer containing test compounds, 50 pM [125I]-human calcitonin, media w/o phenol red, 500 ml 0.1% ovalbumin (5 ml 10% ovalbumin) 10 mM Hepes (5 ml 1M) 1× Glutamin (5 ml 100×) 1% P/S (5 ml 100%) Complete (1 tablet/50 ml) 0.1% Pluronic F68®. The morning after, the plates were washed three times in HBSS (4° C.), and lyzed in Lysis buffer (0.1 M NaOH), 1% SDS. Scintillation cocktail (MicroScint40®) was added and the plates were shaken at 500 rpm for a short period. The plate was incubated at room temperature in the dark for 1 hour and Read on a TopCounter™ (Packard). The IC50 was calculated using (one site binding competition analysis) GraphPad Prism5 as a measure of receptor affinity. Assay (VIII)—Determination of Binding to the Rat Calcitonin Receptor

[4] = molecular target: T3, human calcitonin (a) receptor, BHK570 cells (Homo sapiens, UniProt P30988); test: Assay (II)b functional CRE-luciferase assay without albumin, human calcitonin receptor; format: cell-based; details: Tested without HSA; read-out: hCTR funct. EC50
T3 construct: host or cells: BHK570
T3 sequence (P30988 25-474): T2 sequence (P30988 25-474)
Outline: as §1

[5] = molecular target: T4, human amylin receptor (human calcitonin receptor + human RAMP3), BHK tk'ts 13 cells (Homo sapiens, UniProt O60896+P30988); test: Assay (Va) binding to the human amylin receptor (whole cell); details: read-out: hAmylin-R binding IC50
T4 construct: expressed in transfected cells; host or cells: BHK tk'ts 13
Method: The day before the assay the cells were Seeded into Poly-D-Lysin coated 384W Opaque White, BD BioCoat plates (10000 cells/well) and Incubated overnight at 37° C., 5% CO2, 95% humidity.

[6] = molecular target: T1, human amylin 3(a) receptor (human calcitonin receptor + RAMP-3), BHK570 cells; test: Assay (II)a functional CRE-luciferase assay with albumin, human amylin receptor; format: cell-based; details: Tested with HSA; read-out: hAmylin-R funct. EC50
Outline: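 BHK570 cells stably carry a CRE-luciferase reporter and the calcitonin receptor; co-transfected RAMP-3 gives the amylin 3(a) receptor line. Cells were treated for 3 h at 37 °C in DMEM with 10% FBS and 10 mM Hepes, pH 7.4. cAMP-driven luciferase was read by LucLite luminescence after 30 min at RT.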

T1 sequence (O60896 24-148, one chain of several): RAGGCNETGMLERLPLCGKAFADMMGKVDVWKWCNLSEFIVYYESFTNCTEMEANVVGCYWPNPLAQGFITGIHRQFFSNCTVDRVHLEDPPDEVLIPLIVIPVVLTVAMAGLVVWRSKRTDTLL
T4 sequence (O60896 24-148, one chain of several): as above

SMILES | solubility at 18 h ([1]; bistrispropane buffer, pH 6.5) [µM] | solubility at 18 h ([1]; bistrispropane buffer, pH 7.5) [µM] | solubility at 18 h ([1]; bistrispropane buffer, pH 6.0) [µM] | solubility at 18 h ([1]; bistrispropane buffer, pH 7.0) [µM] | solubility at 18 h ([1]; bistrispropane buffer, pH 8.0) [µM] | solubility at 18 h ([1]; glycylglycine buffer, pH 3.0) [µM] | solubility at 18 h ([1]; glycylglycine buffer, pH 4.0) [µM] | solubility at 18 h ([1]; glycylglycine buffer, pH 5.0) [µM] | EC50 [2] [nM] | IC50 [3] [nM] | EC50 [4] [nM] | IC50 [5] [nM] | EC50 [6] [nM]
CC(C)C[C@H](NC(=O)[C@H](CCC(=O)O)NC(=O)[C@H](Cc1c[nH]cn1)NC(=O)[C@H](CC(C)C)NC(=O)[C@H](CCC(=O)O)NC(=O)[C@H](C)NC(=O)[C@H](CO)NC(=O)[C@H](CC(C)C)NC(=O)[C@H](CCCNC(=N)N)NC(=O)CNC(=O)[C@H](CC(C)C)NC(=O)[C@@H](NC(=O)[C@H](C)NC(=O)[C@@H](NC(=O)[C@@H](NC(=O)[C@H](CC(C)C)NC(=O)[C@H](CCC(=O)O)NC(=O)[C@H](CO)NC(=O)[C@H](C)NC(=O)CC[C@H](NC(=O)CCCCCCCCCCCCCCCCC(=O)O)C(=O)O)[C@@H](C)O)[C@@H](C)O)C(C)C)C(=O)N[C@@H](C)C(=O)N[C@H](C(=O)N[C@@H](CC(C)C)C(=O)N1CCC[C@H]1C(=O)N[C@@H](CCCNC(=N)N)C(=O)N[C@H](C(=O)N[C@@H](CCC(=O)O)C(=O)N[C@H](C(=O)NCC(=O)N[C@@H](CO)C(=O)NCC(=O)N[C@H](C(=O)N1CCC[C@H]1C(N)=O)[C@@H](C)O)[C@@H](C)O)[C@@H](C)O)[C@@H](C)O [compound 94, [N-terminal(C18 diacid-gGlu), des1, 6T, 9V, 30S, 31G, 32T]mimylin] ({C18 diacid-γGlu}-ASELTTAVLGRLSAELHELATLPRTETGSGTP-NH2) | ≥ 200 | ≥ 200 | ≥ 200 | ≥ 200 | ≥ 200 | ≥ 200 | ≥ 200 | ≥ 200 | 0.042 | 0.651 | 0.03 | 0.652 | 0.03
CC[C@H](C)[C@H](NC(=O)[C@H](C)NC(=O)[C@@H](NC(=O)[C@H](CO)NC(=O)[C@@H](NC(=O)[C@H](CCC(=O)O)NC(=O)[C@H](CO)NC(=O)[C@H](C)NC(=O)[C@H](CCC(=O)O)NC(=O)CCCCCCCCCCCCCCCCC(=O)O)[C@@H](C)CC)[C@@H](C)O)C(=O)N[C@@H](CC(C)C)C(=O)NCC(=O)N[C@@H](CCCNC(=N)N)C(=O)N[C@@H](CC(C)C)C(=O)N[C@@H](CO)C(=O)N[C@@H](C)C(=O)N[C@@H](CCC(=O)O)C(=O)N[C@@H](CC(C)C)C(=O)N[C@@H](Cc1c[nH]cn1)C(=O)N[C@@H](CCC(=O)O)C(=O)N[C@@H](CC(C)C)C(=O)N[C@@H](C)C(=O)N[C@H](C(=O)N[C@@H](CC(C)C)C(=O)N1CCC[C@H]1C(=O)N[C@@H](CCCNC(=N)N)C(=O)N[C@H](C(=O)N[C@@H](CCC(=O)O)C(=O)N[C@H](C(=O)NCC(=O)N1CCC[C@H]1C(=O)N[C@@H](CCC(=O)O)C(=O)N[C@@H](CO)C(=O)N1CCC[C@H]1C(N)=O)[C@@H](C)O)[C@@H](C)O)[C@@H](C)O [compound 25, [N-terminal(C18 diacid), 5I, 9I]mimylin] | ≥ 200 | ≥ 200 | ≥ 200 | ≥ 200 | ≥ 200 | ≥ 200 | 218 (≈ 822 µg/mL) | ≥ 200 | 0.01 | 0.413 | 0.007 | 0.4 | –
